Key:
[1] = system: A375 melanoma cell with BRAF V600E mutation; assay: A375 cell proliferation assay (counter screen); format: cell-based, human; conditions: Homo sapiens, A-375, A375 cells, 72 hours treatment, CellTiter96, read-out: anti-proliferation activity A375 BRAF V600E, IC50 ranking
Outline: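 A375 cells (BRAF V600E) seeded at 2000 cells/well in DMEM with 10% FBS, settled overnight at 37° C, 5% CO2, then exposed to increasing compound concentrations for 72 hours. Viability read by MTS-type CellTiter96 AQueous reagent, absorbance at 490 nm after 2–4 hours.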

MET kinase = biological target: T1, MET kinase (Homo sapiens, UniProt P08581); assay: MET kinase assay (AlphaScreen, counter screen); format: biochemical; conditions: read-out: Ranking of IC50 values, MET
T1 construct: purchased SignalChem
Outline: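 IC50 came from duplicate serial dilutions, with AlphaScreen detection of phosphorylated biotin-poly(Glu4:Tyr1). The reaction used 1 ng recombinant MET, 10 µM ATP […], and MOPS pH 7.0/MgCl2 buffer, ran 45 min at 30 °C, and was quenched with EDTA.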

[2] = system: Molm-14 human acute myeloid leukemia cell with FLT3-ITD mutation; assay: Molm-14 cell proliferation assay (CellTiter 96); format: cell-based; conditions: Homo sapiens; Molm-14 cells, 72 hours treatment, CellTiter96; read-out: anti-proliferation activity Molm-14 (FLT3-ITD), IC50 ranking
Outline: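 Molm-14 (FLT3-ITD AML) cells in RPMI 1640 with 10% heat-inactivated FBS were seeded at 25000 cells/well, incubated overnight at 37° C, 5% CO2, then treated with increasing compound concentrations for 72 hours. Viability was read as absorbance at 490 nm after 2˜4 hours with CellTiter96 AQueous One reagent.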

FLT3-D835Y mutant kinase = biological target: T2, FLT3-D835Y mutant kinase (Homo sapiens, UniProt P36888, D835Y); assay: FLT3-D835Y mutant kinase assay (AlphaScreen); format: biochemical; conditions: read-out: Ranking of IC50 values, FLT3-D835Y
T2 construct: purchased SignalChem
T2 sequence (P36888 27-993 D835Y): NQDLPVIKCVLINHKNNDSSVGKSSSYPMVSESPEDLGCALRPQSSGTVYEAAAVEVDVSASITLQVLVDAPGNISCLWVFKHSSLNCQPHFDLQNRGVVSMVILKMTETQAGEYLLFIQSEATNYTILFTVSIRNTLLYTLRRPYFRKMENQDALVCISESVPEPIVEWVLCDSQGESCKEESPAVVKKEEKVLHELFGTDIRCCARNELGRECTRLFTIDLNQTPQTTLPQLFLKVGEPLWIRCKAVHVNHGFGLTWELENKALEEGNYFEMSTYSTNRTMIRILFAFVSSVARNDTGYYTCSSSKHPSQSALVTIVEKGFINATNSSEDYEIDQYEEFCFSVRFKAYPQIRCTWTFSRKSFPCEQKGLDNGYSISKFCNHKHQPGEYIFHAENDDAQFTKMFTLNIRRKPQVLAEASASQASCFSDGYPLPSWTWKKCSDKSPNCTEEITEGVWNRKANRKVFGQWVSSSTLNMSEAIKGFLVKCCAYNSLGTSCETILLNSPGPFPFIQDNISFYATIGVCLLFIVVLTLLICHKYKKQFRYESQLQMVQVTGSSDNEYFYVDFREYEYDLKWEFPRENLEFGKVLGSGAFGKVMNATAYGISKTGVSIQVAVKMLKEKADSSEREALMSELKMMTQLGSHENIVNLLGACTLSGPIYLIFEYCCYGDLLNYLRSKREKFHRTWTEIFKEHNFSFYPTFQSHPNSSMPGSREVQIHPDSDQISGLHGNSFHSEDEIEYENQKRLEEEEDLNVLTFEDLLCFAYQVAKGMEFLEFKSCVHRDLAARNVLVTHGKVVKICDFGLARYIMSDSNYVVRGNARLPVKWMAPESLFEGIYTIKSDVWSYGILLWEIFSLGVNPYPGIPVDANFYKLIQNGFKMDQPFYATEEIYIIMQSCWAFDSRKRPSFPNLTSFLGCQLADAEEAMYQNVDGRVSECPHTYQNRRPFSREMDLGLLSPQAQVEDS
Outline: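 AlphaScreen readout of biotin-poly(Glu4:Tyr1) phosphorylation by 1 ng recombinant FLT3-D835Y. Conditions were 10 μM ATP, 10 mM MgCl2, MOPS pH 7.0, 30 min at 30 °C, EDTA stop. Compounds were serially diluted in duplicate to derive IC50.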

T1 sequence (P08581 25-1390): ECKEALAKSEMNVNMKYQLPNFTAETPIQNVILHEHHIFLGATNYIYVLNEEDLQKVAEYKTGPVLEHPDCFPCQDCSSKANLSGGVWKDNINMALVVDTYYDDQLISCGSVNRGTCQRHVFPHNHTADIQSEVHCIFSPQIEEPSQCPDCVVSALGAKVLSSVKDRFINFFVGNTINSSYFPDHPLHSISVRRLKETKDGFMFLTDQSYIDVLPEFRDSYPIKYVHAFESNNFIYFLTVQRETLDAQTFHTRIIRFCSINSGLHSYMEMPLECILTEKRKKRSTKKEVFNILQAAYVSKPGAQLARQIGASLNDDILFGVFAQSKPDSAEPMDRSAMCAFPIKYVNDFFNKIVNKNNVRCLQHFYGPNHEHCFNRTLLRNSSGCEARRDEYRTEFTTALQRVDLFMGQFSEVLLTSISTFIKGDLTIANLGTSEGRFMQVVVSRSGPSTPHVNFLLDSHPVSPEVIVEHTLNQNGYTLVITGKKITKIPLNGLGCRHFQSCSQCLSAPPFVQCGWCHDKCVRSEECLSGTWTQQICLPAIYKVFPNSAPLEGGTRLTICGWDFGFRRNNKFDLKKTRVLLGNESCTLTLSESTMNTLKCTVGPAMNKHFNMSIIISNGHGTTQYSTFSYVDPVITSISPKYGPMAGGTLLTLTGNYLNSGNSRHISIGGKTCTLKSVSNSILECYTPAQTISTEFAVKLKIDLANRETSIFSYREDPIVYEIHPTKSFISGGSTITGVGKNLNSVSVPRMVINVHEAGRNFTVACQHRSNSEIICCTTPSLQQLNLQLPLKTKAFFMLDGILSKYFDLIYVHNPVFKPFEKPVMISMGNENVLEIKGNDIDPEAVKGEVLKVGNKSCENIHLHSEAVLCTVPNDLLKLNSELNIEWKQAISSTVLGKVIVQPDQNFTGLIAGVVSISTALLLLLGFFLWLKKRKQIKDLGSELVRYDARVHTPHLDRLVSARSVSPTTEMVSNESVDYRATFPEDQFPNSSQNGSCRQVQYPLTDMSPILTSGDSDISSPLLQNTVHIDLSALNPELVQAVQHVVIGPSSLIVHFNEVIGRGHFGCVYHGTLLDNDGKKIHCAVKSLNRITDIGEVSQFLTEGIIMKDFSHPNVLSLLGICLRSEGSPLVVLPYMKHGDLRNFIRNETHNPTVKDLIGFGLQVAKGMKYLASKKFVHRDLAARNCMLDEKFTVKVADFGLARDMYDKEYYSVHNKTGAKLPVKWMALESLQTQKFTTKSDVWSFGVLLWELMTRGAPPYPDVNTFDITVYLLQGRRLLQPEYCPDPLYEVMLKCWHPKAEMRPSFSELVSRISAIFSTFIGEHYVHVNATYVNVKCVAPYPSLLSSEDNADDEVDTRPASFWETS

| SMILES | IC50 [1] [nM] | IC50 (MET kinase) [nM] | IC50 [2] [nM] | IC50 (FLT3-D835Y mutant kinase) [nM] |
| --- | --- | --- | --- | --- |
| Cn1ncc2ccc(-c3n[nH]c4c3Cc3sc(-c5ccc(OCCN6CCOCC6)cc5)cc3-4)cc21 [Compound 69, 4-(2-(4-(3-(1-methyl-1H-indazol-6-yl)-1,4-dihydro-thieno[2′,3′:4,5]cyclopenta [1,2-c]pyrazol-6-yl)phenoxy)ethyl)morpholine] | > 10000 | > 1000 | 30 to 100 | < 1 |
| Cn1ncc2ccc(-c3n[nH]c4c3Cc3sc(-c5cccc(OCCN6CCOCC6)c5)cc3-4)cc21 [Compound 70, 4-(2-(3-(3-(1-methyl-1H-indazol-6-yl)-1,4-dihydro-thieno[2′,3′:4,5]cyclopenta [1,2-c]pyrazol-6-yl)phenoxy)ethyl)morpholine] | > 10000 | > 1000 | 100 to 300 | < 1 |
| Cn1ncc2ccc(-c3n[nH]c4c3Cc3sc(C#CCN5CCOCC5)cc3-4)cc21 [Compound 71, 4-(3-(3-(1-methyl-1H-indazol-6-yl)-1,4-dihydro-thieno[2′,3′:4,5]cyclopenta [1,2-c]pyrazol-6-yl)prop-2-yn-1-yl)morpholine] | 1000 to 10000 | > 1000 | 30 to 100 | < 1 |
| Cn1ncc2ccc(-c3n[nH]c4c3Cc3sc(-c5ccc(NC6CCOCC6)cc5)cc3-4)cc21 [Compound 72, N-(4-(3-(1-methyl-1H-indazol-6-yl)-1,4-dihydro-thieno[2′,3′:4,5]cyclopenta [1,2-c]pyrazol-6-yl)phenyl)tetrahydro-2H-pyran-4-amine] | > 10000 | > 1000 | 100 to 300 | 1 to 10 |
| CN(c1ccc(-c2cc3c(s2)Cc2c(-c4ccc5cnn(C)c5c4)n[nH]c2-3)cc1)C1CCOCC1 [Compound 73, N-methyl-N-(4-(3-(1-methyl-1H-indazol-6-yl)-1,4-dihydrothieno [2′,3′:4,5]cyclopenta [1,2-c]pyrazol-6-yl)phenyl)tetrahydro-2H-pyran-4-amine] | > 10000 | > 1000 | 300 to 1000 | 1 to 10 |
| C[C@@H]1COCCN1Cc1ccc(-c2cc3c(s2)Cc2c(-c4ccc5cnn(C)c5c4)n[nH]c2-3)cc1 [Compound 74, (R)-3-methyl-4-(4-(3-(1-methyl-1H-indazol-6-yl)-1,4-dihydrothieno [2′,3′:4,5]cyclopenta [1,2-c]pyrazol-6-yl)benzyl)morpholine] | > 10000 | > 1000 | 30 to 100 | < 1 |
| C[C@H]1COCCN1Cc1ccc(-c2cc3c(s2)Cc2c(-c4ccc5cnn(C)c5c4)n[nH]c2-3)cc1 [Compound 75, (S)-3-methyl-4-(4-(3-(1-methyl-1H-indazol-6-yl)-1,4-dihydrothieno [2′,3′:4,5]cyclopenta [1,2-c]pyrazol-6-yl)benzyl)morpholine] | > 10000 | > 1000 | 30 to 100 | < 1 |
| Cn1ncc2ccc(-c3n[nH]c4c3Cc3sc(-c5ccc(C=C6CCOCC6)cc5)cc3-4)cc21 [Compound 76, 3-(1-methyl-1H-indazol-6-yl)-6-(4-((tetrahydro-4H-pyran-4-ylidene)methyl)phenyl)-1,4-dihydrothieno[2′,3′:4,5] cyclopenta[1,2-c]pyrazole] | > 10000 | > 1000 | 300 to 1000 | 1 to 10 |
| Cn1ncc2ccc(-c3n[nH]c4c3Cc3sc(-c5ccc(CC6CCOCC6)cc5)cc3-4)cc21 [Compound 77, 3-(1-methyl-1H-indazol-6-yl)-6-(4-((tetrahydro-2H-pyran-4-yl)methyl)phenyl)-1,4-dihydrothieno [2′,3′:4,5]cyclopenta [1,2-c]pyrazole] | 1000 to 10000 | > 1000 | 100 to 300 | 1 to 10 |
| Cn1ncc2ccc(-c3n[nH]c4c3Cc3sc(N5CCOCC5)cc3-4)cc21 [Compound 78, 4-(3-(1-methyl-1H-indazol-6-yl)-1,4-dihydro-thieno[2′,3′:4,5]cyclopenta [1,2-c]pyrazol-6-yl) morpholine] | 1000 to 10000 | > 1000 | < 30 | < 1 |
| Cn1ncc2ccc(-c3n[nH]c4c3Cc3sc(N5CCOCC5=O)cc3-4)cc21 [Compound 79, 4-(3-(1-methyl-1H-indazol-6-yl)-1,4-dihydro-thieno[2′,3′:4,5]cyclopenta [1,2-c]pyrazol-6-yl) morpholin-3-one] | 1000 to 10000 | > 1000 | < 30 | < 1 |
| Cn1ncc2ccc(-c3n[nH]c4c3Cc3sc(-c5ccc(CN6CCC(N7CCOCC7)CC6)cc5)cc3-4)cc21 [Compound 80, 4-(1-(4-(3-(1-methyl-1H-indazol-6-yl)-1,4-dihydro-thieno[2′,3′:4,5]cyclopenta [1,2-c]pyrazol-6-yl)benzyl)piperidin-4-yl) morpholine] | > 10000 | 300 to 1000 | < 30 | < 1 |
| Cn1ncc2ccc(-c3n[nH]c4c3Cc3sc(C5CCNCC5)cc3-4)cc21 [Compound 96, 3-(1-methyl-1H-indazol-6-yl)-6-(piperidin-4-yl)-1,4-dihydrothieno [2′,3′:4,5]cyclopenta [1,2-c]pyrazole] | 1000 to 10000 | > 1000 | < 30 | < 1 |
| Cn1ncc2ccc(-c3n[nH]c4c3Cc3sc(-c5ccc(CN6CCCOCC6)cc5)cc3-4)cc21 [Compound 97, 4-(4-(3-(1-methyl-1H-indazol-6-yl)-1,4-dihydro-thieno[2′,3′:4,5]cyclopenta [1,2-c]pyrazol-6-yl)benzyl)-1,4-oxazepane] | 1000 to 10000 | > 1000 | < 30 | < 1 |
| Cn1ncc2ccc(-c3n[nH]c4c3Cc3sc(C5CCN(C(=O)CN6CCOCC6)CC5)cc3-4)cc21 [Compound 98, 1-(4-(3-(1-methyl-1H-indazol-6-yl)-1,4-dihydro-thieno[2′,3′:4,5]cyclopenta [1,2-c]pyrazol-6-yl)piperidin-1-yl)-2-morpholinoethan-1-one] | 1000 to 10000 | > 1000 | < 30 | < 1 |
| Cn1ncc2ccc(-c3n[nH]c4c3Cc3sc(-c5ccc(CN6CCCC6)cc5)cc3-4)cc21 [Compound 99, 3-(1-methyl-1H-indazol-6-yl)-6-(4-(pyrrolidin-1-ylmethyl)phenyl)-1,4-dihydrothieno[2′,3′:4,5] cyclopenta[1,2-c]pyrazole] | > 10000 | > 1000 | < 30 | < 1 |
| Cn1ncc2ccc(-c3n[nH]c4c3Cc3sc(-c5ccc(CN6CCCCC6)cc5)cc3-4)cc21 [Compound 100, 3-(1-methyl-1H-indazol-6-yl)-6-(4-(piperidin-1-ylmethyl)phenyl)-1,4-dihydrothieno[2′,3′:4,5] cyclopenta[1,2-c]pyrazole] | > 10000 | 100 to 300 | < 30 | < 1 |
| Cn1ncc2ccc(-c3n[nH]c4c3Cc3sc(-c5ccc(CN6CC7(COC7)C6)cc5)cc3-4)cc21 [Compound 102, 6-(4-(3-(1-methyl-1H-indazol-6-yl)-1,4-dihydro-thieno[2′,3′:4,5]cyclopenta [1,2-c]pyrazol-6-yl)benzyl)-2-oxa-6-azaspiro [3.3]heptane] | > 10000 | 300 to 1000 | < 30 | < 1 |
